Counter-ions that a name gives are not always drawn.
What was measured:
[1] = test system: L1210 cancer cell (leukemia cell line); experiment: Growth inhibition of L1210 cancer cell (MTT); format: cell-based; conditions: for IC50: Mus musculus
Procedure: (§1) In the present experiment, the inhibitory activity of the compound of formula (1) was determined against the growth of K562 cancer cell. First, the cells were allowed to stand in RPMI (Roswell Park Memorial Institute)-1640 medium containing 10% (v/v) fetal bovine serum in an incubator of 37° C. and 5% by volume of CO2. The cancer cells (1000 cells) were transferred to a 96-well plate, and the test compound was diluted. The plate was allowed to stand under the above mentioned conditions for 2 days. After this treatment, to the cells was added 0.2% MTT (3-[4,5-dimethylthiazol-2-yl]-2,5-diphenyltetrazolium bromide) solution, and the resulting mixture was allowed to stand under the constant temperature-condition for 4 hours. The supernatant was removed to leave the resulting crystal. DMSO was added to dissolve the crystal, and the absorbance of the solution was measured at 540 nm. IC50 value was calculated using a computer system according to the following formula: […]
In the present experiment, the inhibitory activity of the compound of formula (1) was determined against the growth of L1210 cancer cell. The test was performed according to the same procedure as Experiment 1.

[2] = test system: U937 cancer cell (monocyte like leukemia cell line); experiment: Growth inhibition of U937 cancer cell (MTT); format: cell-based; conditions: Homo sapiens, U-937
Procedure: as §1
In the present experiment, the inhibitory activity of the compound of formula (1) was determined against the growth of U937 cancer cell. The test was performed according to the same procedure as Experiment 1.

[3] = test system: K562 cancer cell (CML cell line); experiment: Growth inhibition of K562 cancer cell (MTT); format: cell-based; conditions: for IC50: Homo sapiens, K562, 48 h, K562, 2 days, MTT, read-out: IC50
Procedure: In the present experiment, the inhibitory activity of the compound of formula (1) was determined against the growth of K562 cancer cell. First, the cells were allowed to stand in RPMI (Roswell Park Memorial Institute)-1640 medium containing 10% (v/v) fetal bovine serum in an incubator of 37° C. and 5% by volume of CO2. The cancer cells (1000 cells) were transferred to a 96-well plate, and the test compound was diluted. The plate was allowed to stand under the above mentioned conditions for 2 days. […] The supernatant was removed to leave the resulting crystal.

[4] = Comparative pharmacokinetic test in white rats; format: in vivo, white rats (Sprague-Dawley); conditions: male, Sprague-Dawley, plasma, po, rat, 100 mg/kg, P.O.
Procedure: On the previous day to the test, white rats (Sprague-Dawley, 250˜280 g, male) were put under anesthesia by pentobarbital sodium (50 mg/kg, I.P.). Then, cannula (polyethylene tube; diameter: 0.58mm) was introduced into the rats via the carotid artery and jugular vein, and drawn out to the back. After the operation, the rats were fasted for 16 hours and used for the test. […] Blood was collected in 0, 0.5, 1, 1.5, 2, 2.5, 3, 3.5, 4, 4.5, 5, 6, 8, 10, 12, and 24 hours from the carotid artery. The samples for HPLC analysis were prepared using the collected blood according to the following procedure and were analyzed under the following conditions.
Blood was collected by an amount of 0.5 ml at each prearranged time and centrifuged at 15000 rpm for 7 minutes to separate […] of plasma. In order to remove proteins, MeOH was added in an amount of […], twice as much as the amount of plasma, and the mixture was shaken for 30 minutes. The mixture was centrifuged again at 15000 rpm for 5 minutes to give protein free supernatant, which was then analyzed by HPLC.
Flow rate: 1.0 ml/min, UV detection at 267 nm
Column: 4.6×150 mm, 5C18-AR-II, COSMOSIL
Eluent: Mixture of ion pair sample (420 ml) and MeOH (580 ml)
Ion pair sample: 7.5 g of 1-octanesulfonic acid was dissolved in 800 ml of water. The resulting mixture was adjusted to pH 2.5 using phosphoric acid and diluted with water to 1000 ml volume.
Here, the pharmacokinetic parameters are Tmax (time to reach the maximum blood concentration), Cmax (maximum blood concentration), AUC (area under the curve of time-blood concentration), and T1/2 (half time in blood), and the AUC was calculated under trapezoid rule (see Tables 6, 7 and FIGS. 1, 2).

Row | SMILES | melting point [°C] | IC50 [1] [µg/mL] | IC50 [2] [µg/mL] | IC50 [3] [µg/mL] | further results
1 | CS(=O)(=O)O.Cc1cc(NC(=O)c2ccc(CNN3CCN(C)CC3)cc2)ccc1Nc1nccc(-c2cccnc2)n1 | 172 to 174 |  |  |  | 
2 | CC(=O)O.CN1CCN(NCc2ccc(C(=O)Nc3ccc(Nc4nccc(-c5cccnc5)n4)cc3)cc2)CC1 | 169 to 171 |  |  |  | 
3 | CS(=O)(=O)O.Cc1ccc(Nc2nccc(-c3cccnc3)n2)cc1NC(=O)c1ccc(CN2CCCN(C)CC2)cc1 [Example 6, 4-(4-methylhomopiperazin-1-ylmethyl)-N-[2-methyl-5-(4-(pyridin-3-yl)pyrimidin-2-yl)aminophenyl]benzamide methanesulfonate] | 168 to 170 | 3.24 | 5.14 | 20.5 | Improved activity versus Imatinib mesylate [1]: 10 times
4 | CS(=O)(=O)O.Cc1ccc(Nc2nccc(-c3cccnc3)n2)cc1NC(=O)c1ccc(CNN2CCN(C)CC2)cc1 [Example 8, 4-(4-methylpiperazin-1-ylaminomethyl)-N-[2-methyl-5-(4-(pyridin-3-yl)pyrimidin-2-yl)aminophenyl]benzamide methanesulfonate] | 150 to 152 | 7.38 | 9.44 | 27.6 | 
5 | CN1CCCN(Cc2ccc(C(=O)Nc3cccc(Nc4nccc(-c5cccnc5)n4)c3)cc2)CC1.CS(=O)(=O)O [Example 12, 4-(4-methylhomopiperazin-1-ylmethyl)-N-[3-(4-(pyridin-3-yl)pyrimidin-2-yl)aminophenyl]benzamide methanesulfonate] | 206 to 208 | 0.99 | 3.41 | 10.2 | Improved activity versus Imatinib mesylate [1]: 32 times
6 | CN1CCN(NCc2ccc(C(=O)Nc3cccc(Nc4nccc(-c5cccnc5)n4)c3)cc2)CC1.CS(=O)(=O)O [Example 14, 4-(4-methylpiperazin-1-ylaminomethyl)-N-[3-(4-(pyridin-3-yl)pyrimidin-2-yl)aminophenyl]benzamide methanesulfonate] | 148 to 150 |  |  | 8.95 | 
7 | CS(=O)(=O)O.Cc1cc(NC(=O)c2ccc(CN3CCCN(C)CC3)cc2)ccc1Nc1nccc(-c2cccnc2)n1 [Example 16, 4-(4-methylhomopiperazin-1-ylmethyl)-N-[3-methyl-4-(4-(pyridin-3-yl)pyrimidin-2-yl)aminophenyl]benzamide methanesulfonate] | 166 to 168 |  |  | > 50 | 
8 | COc1ccc(NC(=O)c2ccc(CN3CCCN(C)CC3)cc2)cc1Nc1nccc(-c2cccnc2)n1.CS(=O)(=O)O [Example 20, 4-(4-methylhomopiperazin-1-ylmethyl)-N-[4-methoxy-3-(4-(pyridin-3-yl)pyrimidin-2-yl)aminophenyl]benzamide methanesulfonate] | 140 to 142 | 4.32 | 9.51 | 34.7 | 
9 | COc1ccc(NC(=O)c2ccc(CNN3CCN(C)CC3)cc2)cc1Nc1nccc(-c2cccnc2)n1.CS(=O)(=O)O [Example 22, 4-(4-methylpiperazin-1-ylaminomethyl)-N-[4-methoxy-3-(4-(pyridin-3-yl)pyrimidin-2-yl)aminophenyl]benzamide methanesulfonate] | 142 to 144 | 4.46 | 8.61 | 10 | 
10 | CN1CCCN(Cc2ccc(C(=O)Nc3cc(Nc4nccc(-c5cccnc5)n4)ccc3F)cc2)CC1.CS(=O)(=O)O [Example 24, 4-(4-methylhomopiperazin-1-ylmethyl)-N-[2-fluoro-5-(4-(pyridin-3-yl)pyrimidin-2-yl)aminophenyl]benzamide methanesulfonate] | 125 to 127 |  |  | 19.1 | 
11 | CN1CCN(NCc2ccc(C(=O)Nc3cc(Nc4nccc(-c5cccnc5)n4)ccc3F)cc2)CC1.CS(=O)(=O)O [Example 28, 4-(4-methylpiperazin-1-ylaminomethyl)-N-[2-fluoro-5-(4-(pyridin-3-yl)pyrimidin-2-yl)aminophenyl]benzamide methanesulfonate] | 142 to 144 |  |  | 8.63 | 
12 | CN1CCN(NCc2ccc(C(=O)Nc3ccc(Nc4nccc(-c5cccnc5)n4)cc3)cc2)CC1.CS(=O)(=O)O [Example 30, 4-(4-methylpiperazin-1-ylaminomethyl)-N-[4-(4-(pyridin-3-yl)pyrimidin-2-yl)aminophenyl]benzamide methanesulfonate] | 151 to 153 |  |  | 22.8 | 
13 | CN1CCN(Cc2ccc(C(=O)Nc3ccc(F)c(Nc4nccc(-c5cccnc5)n4)c3)cc2)CC1.CS(=O)(=O)O [Example 32, 4-(4-methylpiperazin-1-ylmethyl)-N-[4-fluoro-3-(4-(pyridin-3-yl)pyrimidin-2-yl)aminophenyl]benzamide methanesulfonate] | 172 to 174 |  |  | 8.06 | 
14 | CN1CCCN(Cc2ccc(C(=O)Nc3ccc(F)c(Nc4nccc(-c5cccnc5)n4)c3)cc2)CC1.CS(=O)(=O)O [Example 34, 4-(4-methylhomopiperazin-1-ylmethyl)-N-[4-fluoro-3-(4-(pyridin-3-yl)pyrimidin-2-yl)aminophenyl]benzamide methanesulfonate] | 158 to 160 |  |  | 7.17 | 
15 | CS(=O)(=O)O.O=C(Nc1cccc(Nc2nccc(-c3cccnc3)n2)c1)c1ccc(CN2CCCCC2)cc1 [Example 36, 4-(piperidin-1-ylmethyl)-N-[3-(4-(pyridin-3-yl)pyrimidin-2-yl)aminophenyl]benzamide methanesulfonate] | 173 to 175 | 5.95 | 6.91 | 11.3 | 
16 | CN1CCCN(Cc2ccc(C(=O)Nc3ccc(Nc4nccc(-c5cccnc5)n4)cc3)cc2)CC1.Cl [Example 41, 4-(4-methylhomopiperazin-1-ylmethyl)-N-[4-(4-(pyridin-3-yl)pyrimidin-2-yl)aminophenyl]benzamide hydrochloride] |  |  |  | 5.61 | 
17 | Cc1ccc(NC(=O)c2ccc(CNN3CCN(C)CC3)cc2)cc1Nc1nccc(-c2cccnc2)n1.Cl [Example 42, 4-(4-methylpiperazin-1-ylaminomethyl)-N-[4-methyl-3-(4-(pyridin-3-yl)pyrimidin-2-yl)aminophenyl]benzamide hydrochloride] |  |  |  | 0.3 | Improved activity versus Imatinib mesylate ([3]; K562): much higher activity
18 | CN1CCN(NCc2ccc(C(=O)Nc3ccc(Nc4nccc(-c5cccnc5)n4)cc3)cc2)CC1.Cl [Example 43, 4-(4-methylpiperazin-1-ylaminomethyl)-N-[4-(4-(pyridin-3-yl)pyrimidin-2-yl)aminophenyl]benzamide hydrochloride] | 183 to 185 |  |  | > 50 | 
19 | Cc1ccc(NC(=O)c2ccc(CN3CCN(C)CC3)cc2)cc1Nc1nccc(-c2cccnc2)n1 [Imatinib mesylate, reference compound] |  |  |  |  | Cmax [4]: 2720 ng/mL; Tmax [4]: 2.3 h; AUC ([4]; trapezoid rule): 26500 ng·h/mL

Reference: patent US20040248918A1, “N-phenyl-2-pyrimidine-amine derivatives and process for the preparation thereof” (IL YANG PHARM. CO., LTD., priority 2003, published 2004)
